Assay [1] concerns RBCs from healthy donors. Kind of assay: Occlusion Chip microfluidic assessment of RBC deformability (RBC Occlusion Index) after chemical treatment. The class given is cell-based, human. Particulars: for RBC Occlusion Index (ROI), mean±SEM: directly suspended in PBS, N=4. How it is done:
Whole blood samples were centrifuged at 500×g for 5 min at 4° C., plasma was removed, and the RBCs were washed twice in PBS, and re-suspended at a 20% hematocrit value. The Occlusion Chip was placed on an Olympus IX83 inverted motorized microscope stage for high-resolution imaging. The RBC samples were perfused through the microchannel under constant pressure for 20 min (FIGS. 12A & B). Non-retained RBCs were rinsed away by injecting PBS into the microchannel under the same pressure. […] Phase contrast, bright field, and fluorescent images were recorded at 20× using the Olympus Cell Sense live imaging software (excitation/emission wavelength, 488/505-580 for Green Fluorescent Protein, GFP). Post processing of recorded images and cell counting were performed using Adobe Photoshop (San Jose, CA). Oxygen tension was controlled in hypoxia experiments using a custom designed gas exchange setup as described in Supplementary Materials. Scanning electron microscopy was performed on the micropillars and RBCs.
Glutaraldehyde, a non-specific protein cross-linker, and diamide, a thiol group oxidant inducing disulfide cross-linking of band 3, are used to stiffen RBCs in order to mimic impaired RBC deformability, seen in pathological conditions. Precisely controlled exposure of RBC to graded concentrations of glutaraldehyde or diamide was utilized to verify Occlusion Chip functionality. RBCs from healthy donors exposed to graded concentrations, 0.00% (as control), 0.02%, 0.04%, and 0.08% (w/v), of glutaraldehyde were mixed with untreated normal RBCs to achieve 1% treated cells and were suspended in PBS for microfluidic assessment. RBCs exposed to same graded concentrations of diamide were directly suspended in PBS for microfluidic assessment. […] The retained RBCs were fluorescently labeled with anti-glycophorin A (CD235a, Abcam, Cambridge, MA) antibodies. […] At the end of the test, numbers of occlusions induced by poorly-deformable RBCs within each micropillar array were quantified (FIGS. 7D&E). […] To assess the overall RBC deformability of specific samples, we assigned different weight to the occlusion events quantitated within different micropillar arrays, and defined a new parameter ‘RBC Occlusion Index’ (ROI) using the following equation,
Mercury is a toxic heavy metal that binds to RBC membranes with high affinity and results in RBC hemolysis. Mercuric ions induce membrane conformational changes and impair RBC deformability.

In assay [2] the test system is RBCs in whole venous blood. Description: Fibrinogen-accelerated RBC sedimentation in whole blood. The class given is cell-based, human. Conditions: fibrinogen stock 40 mg/ml mixed with whole blood 1:9 to 1:1 (v/v), monitored over 20 min, compared to PBS. On the procedure: The experiments are performed immediately after blood draw through […]. We examine the effect of additional fibrinogen on RBC sedimentation, which has been reported to have a marked correlation between the concentration of and the erythrocyte sedimentation rate.
Whole venous blood was drawn with anticoagulated EDTA into a 1.5 ml microcentrifuge tube. Fibrinogen stock solution with the concentration of 40 mg/ml (in PBS) was mixed with whole blood at ratios of 1:9, 1:4, 1:2, and 1:1 (v/v) and the final volume of the mixtures was adjusted to 500 μl. Control groups were mixtures of whole blood and PBS at the same volume ratios. The sedimentation of RBCs was monitored over a period of 20 minutes. […] In addition, fibrinogen mediated RBC sedimentation became stable when it approached 20 min, and no more noticeable difference was observed between blood samples with different concentrations of fibrinogen. Therefore, the 1:9 fibrinogen and whole blood mixture (4 mg/ml final fibrinogen concentration) was selected based on a cost-effective point of view, from which 150 μl plasma was collected for further processing.

With `CN(C)C(=O)/N=N/C(=O)N(C)C` [diamide], the entries for the “RBC Occlusion Index (ROI), mean±SEM” value in assay [1] (RBCs exposed to 0.02% diamide), in assay [1] (RBCs exposed to 0.04% diamide) and in assay [1] (RBCs exposed to 0.08% diamide) were 329.9±37.2, 459.8±71.6 and 645.1±87.6, respectively. Moreover, the “effect on RBC stiffness and membrane morphology” value in assay [1] (diamide exposure, micropillar device 20 μm to 4 μm) is “induce structural stiffening of RBCs without interrupting the cell membrane morphology”.

As to `O=CCCCC=O` [glutaraldehyde], in assay [1] (0.08% (w/v) glutaraldehyde), the “increase in total occlusion level compared to the control” value is listed as “more than 16 fold”.

fibrinogen: the “RBC sedimentation (visual, words)” value in assay [2] is recorded as “significantly accelerated the sedimentation of RBCs compared to PBS”.

On to mercuric ion, for which, in assay [1], the “effect on RBC deformability” value was “moderately reduces RBC deformability”.

Source of the values: patent publication US20250099952A1, “MICROFLUIDIC DEVICE AND USES THEREOF” (CASE WESTERN RESERVE UNIVERSITY, priority 2019, published 2025).
